{
  "source": "patent US20190134150A1",
  "about": "“THERAPEUTIC METHODS FOR EXCITATORY NEUROTOXICITY-RELATED INJURIES” (Biocells (Beijing) Biotech Co., Ltd., priority 2016, published 2019)",
  "molecules": {"B1": {"name": "chimeric peptide YE-NA-1 (peptide)", "peptide": "YGRKKRRQRRRYEKLSSIESDV"}},
  "key": {"MCAO model rats": {"system": "MCAO model rats", "experiment": "Cerebral infarction volume (TTC staining) in MCAO model rats", "conditions": "rat, in vivo", "experimental": "The focal cerebral ischemia-reperfusion model was prepared according to the reversible middle cerebral artery occlusion (MCAO) suture method proposed by Longa with modifications in view of the anatomical structure of the rat brain. The rats were anesthetized by intraperitoneal administration of 10% chloral hydrate at a dose of […]. After anesthetization, a cut was created at the cervical midline, and the common carotid artery (CCA), external carotid artery (ECA) and pterygopalatine artery were exposed. The head portion (0.5 cm) of a monofilament nylon fishing line (0.26 mm) was coated with paraffin and a mark was made at 20 mm. All rats were inserted through the right CCA incision, and the pterygopalatine artery was temporarily clamped to prevent mis-insertion. The length of the occlusion line was about 18-20 mm from the bifurcation of CCA depending on the animal's weight, thereby occluding middle cerebral artery on the right side. The skin was then sewed, and the tail end of the occlusion line was partially fixed to the skin. After a period of ischemia for 2 hours, the occlusion line was carefully pulled out to form a reperfusion. The procedure steps for the sham control were the same as the surgery group, except for insertion of a nylon fishing line. The body temperature was maintained at 37±0.5° C. during the ischemia period and 2 h after reperfusion.\nThe used animals were male adult SD rats (Vittalia) of SPF grade with body weight of 220-250 g.\nThe experimental animals were divided into the negative control group, sham group, model group, positive drug Enbipu group, NA-1 group, YE-NA-1 group and P6 group. A saline solution, positive drug Enbipu, NA-1 (10 mg/kg), YE-NA-1 (10 mg/kg) and P6 (10 mg/kg, 3 mg/kg and 1 mg/kg) were respectively administered to individual group of rats via tail vein injection at 1 hour after ischemia. No drugs were administered to the normal group and the sham group.\nThe rats were sacrificed by decapitation after scoring. The brain tissues were quickly removed and placed in a refrigerator at −20° C. After 10 minutes, the tissues were placed in a room temperature environment. The brains were placed in a rat brain section mold. After the olfactory bulb, cerebellum and low brain stem were removed, the brains were coronally cut five times at 2 mm thickness as shown in the profile to obtain six continuous raw coronal slices. Then, the brain sections were quickly placed in a 5 ml solution containing 2% TTC, and incubated at 37° C. for 30 minutes in the dark, during which the brain sections were flipped once every 5 minutes. With the TTC staining, the normal tissue would be rose red, and the infarcted tissue would be unstained and retained white. Each group of brain sections was arranged neatly, and photographed. The photos were processed by an image analysis system software and statistically analyzed. The infarction area of each brain section was calculated, and multiplied by the thickness of each brain section (2 mm). The products of the infarction area of individual brain section multiplied by the thickness were summed to obtain the cerebral infarction volume for each animal. The volumes were expressed as percentages accounting for the cerebral hemisphere to eliminate the effects of cerebral edema."}, "PDZ1/2 domain": {"target": "PDZ1/2 domain", "experiment": "SPR, Biacore 3000, PDZ1/2 amine-coupled on CM5 chip, peptide as analyte, 1:1 model"}},
  "note": "Where “and” joins values, the source holds several entries; their conditions need not be identical. Equal values may be shown once. No end group written: not given here.",
  "data": [
    {"molecule": "YGRKKRRQRRRKLSSIESDV [NA-1, reference compound]", "values": [
      {"measurement": "Mean of infarction volume percentage", "setting": "MCAO model rats", "result": 38.56, "unit": "%"}
    ]},
    {"molecule": "YGRKKRRQRRRYEKLSSIESDV [YE-NA-1, reference compound]", "values": [
      {"measurement": "Mean of infarction volume percentage", "setting": "MCAO model rats", "result": 33.96, "unit": "%"}
    ]},
    {"molecule": "YGRKKRRQRRRYEKLTTLDTGGV [P6]", "values": [
      {"measurement": "Mean of infarction volume percentage", "setting": "MCAO model rats", "result": "26.71% and 37.89% and 43.75%"},
      {"measurement": "Mean of infarction volume percentage", "setting": "MCAO model rats; 1 mg/kg", "result": 41.56, "unit": "%"},
      {"measurement": "Reduction of infarction volume percentage vs model group", "setting": "MCAO model rats; 1 mg/kg", "result": 9.57, "unit": "%"},
      {"measurement": "Mean of infarction volume percentage", "setting": "MCAO model rats; 3 mg/kg", "result": 38.34, "unit": "%"},
      {"measurement": "Reduction of infarction volume percentage vs model group", "setting": "MCAO model rats; 3 mg/kg", "result": 16.58, "unit": "%"},
      {"measurement": "effect on cerebral infarction volume", "setting": "MCAO model rats; 3 mg/kg", "result": "desirably reduced the cerebral infarction volume"},
      {"measurement": "Mean of infarction volume percentage", "setting": "MCAO model rats; 10 mg/kg", "result": 19.54, "unit": "%"},
      {"measurement": "Reduction of infarction volume percentage vs model group", "setting": "MCAO model rats; 10 mg/kg", "result": 57.48, "unit": "%"},
      {"measurement": "reduction of cerebral infarction volume", "setting": "MCAO model rats; 10 mg/kg", "result": "about 50%"}
    ]},
    {"molecule": "control chimeric peptide NA-1", "values": [
      {"measurement": "Kd", "setting": "PDZ1/2 domain", "result": 75.3, "unit": "nM"}
    ]},
    {"molecule": "B1", "values": [
      {"measurement": "Kd", "setting": "PDZ1/2 domain", "result": 54.4, "unit": "nM"}
    ]}
  ]
}
